Results as given in patent publication US8765907B2, “Production and use of antitumoral antibiotic and insecticidal cyclodepsipeptides” (Geomar Helmholtz-Zentrum fur Ozeanforschung Kiel, priority 2009, dated 2014).

Columns and labels:
[1] = test system: GXF251L (gastric tumour cell line); assay: Anti-proliferative effect (propidium iodide fluorescence assay), GXF251L; type: cell-based, human
Description: (§1) Xenobovide A, B and C inhibited the proliferation of all six tested human tumour cell lines: GXF251L (gastric tumour cell line), LXF529L (lung tumour cell line), MAXF401NL (breast cancer cell line), MEXF462NL (melanoma cell line), PAXF1657L (pancreas tumour cell line) and RXF486L (kidney tumour cell line).
(§2) The anti-proliferative effect was determined according to Dengler et al. (1995, Development of a propidium iodide fluorescence assay for proliferation and cytoxicity assay. Anti-Cancer Drugs 6:522-532).

[2] = test system: LXF529L (lung tumour cell line); assay: Anti-proliferative effect (propidium iodide fluorescence assay), LXF529L; type: cell-based, human
Description: as §1, §2

[3] = test system: MAXF401NL (breast cancer cell line); assay: Anti-proliferative effect (propidium iodide fluorescence assay), MAXF401NL; type: cell-based, human
Description: as §1, §2

[4] = test system: MEXF462NL (melanoma cell line); assay: Anti-proliferative effect (propidium iodide fluorescence assay), MEXF462NL; type: cell-based, human
Description: as §1, §2

[5] = test system: PAXF1657L (pancreas tumour cell line); assay: Anti-proliferative effect (propidium iodide fluorescence assay), PAXF1657L; type: cell-based, human
Description: as §1, §2

[6] = test system: RXF486L (kidney tumour cell line); assay: Anti-proliferative effect (propidium iodide fluorescence assay), RXF486L; type: cell-based, human
Description: as §1, §2

larvae of the wax moth = assay: Insecticidal effect, oral toxicity in feed; type: in vivo; settings: added to feed, 1 mg substance/mL solution, five larvae per box, 35° C., six days, four repeated experiments
Description: The insecticidal effect was tested against the larvae of the wax moth, a pathogen in beekeeping. […] To test the oral toxicity, 1 mg substance/mL was dissolved in a 50% aqueous ethanol solution. Five larvae each were transferred into a plastic box (2 cm in diameter) and fed with 1 g food mixture (0.8 mL substance solution, 0.2 mL glycerine (86%) and 1 g wheat bran). The control group was fed with 1 g food mixture without addition of substance (0.4 mL aq. dest., 0.4 mL ethanol, 0.2 mL glycerine (86%) and 1 g wheat bran). The incubation of the larvae was at 35° C. for six days. Subsequently, the dead larvae were counted.

[7] = target: glycogen synthase kinase 3beta (Homo sapiens, UniProt P49841); assay: Inhibition of glycogen synthase kinase 3beta (Kinase-Glo luminescent assay); type: biochemical
Description: Xenobovide A and B, in a concentration of 16.3 μMol and 15.6 μMol, respectively, inhibited the glycogen synthase kinase 3beta by 21% and 43%, respectively. The performance was according to Baki et al. (2007, A high throughput luminescent assay for glycogen synthase kinase-3beta inhibitors. Assay and Drug Development Technologies. 5:75-83) using the kinase-Glo Luminescent Kinase Assay Kit of the company Promega.

acetylcholine esterase = settings: read-out: IC50-value, acetylcholine esterase
Description: Testing was performed according to Birman (1985, Determination of acetylcholinesterase activity by a new chemiluminescence assay with natural substrate. Biochemical Journal. 225:825-828).

[8] = target: phosphodiesterase (PDE-4B2) (Homo sapiens, UniProt Q07343); assay: Inhibition of phosphodiesterase PDE-4B2; type: biochemical; settings: 163 μg/mL
Description: (§3) Xenobovide A in a concentration of 163 μg/mL inhibits the phosphodiesterase (PDE-4B2) by 46%. This enzyme test was carried out according to Hohmann et al. (2009, Caboxamycin, a new antibiotic of the benzoxazole family produced by the deep-sea strain Streptomyces sp. NTK 937. The Journal of Antibiotics. 62:99-104).

[9] = target: T1, Protein Tyrosine Phosphatase 1B (PTP1B) (Homo sapiens, UniProt P18031); assay: Inhibition of protein tyrosine phosphatase 1B; type: biochemical; settings: 26.1 μMol
T1 sequence (P18031 1-435): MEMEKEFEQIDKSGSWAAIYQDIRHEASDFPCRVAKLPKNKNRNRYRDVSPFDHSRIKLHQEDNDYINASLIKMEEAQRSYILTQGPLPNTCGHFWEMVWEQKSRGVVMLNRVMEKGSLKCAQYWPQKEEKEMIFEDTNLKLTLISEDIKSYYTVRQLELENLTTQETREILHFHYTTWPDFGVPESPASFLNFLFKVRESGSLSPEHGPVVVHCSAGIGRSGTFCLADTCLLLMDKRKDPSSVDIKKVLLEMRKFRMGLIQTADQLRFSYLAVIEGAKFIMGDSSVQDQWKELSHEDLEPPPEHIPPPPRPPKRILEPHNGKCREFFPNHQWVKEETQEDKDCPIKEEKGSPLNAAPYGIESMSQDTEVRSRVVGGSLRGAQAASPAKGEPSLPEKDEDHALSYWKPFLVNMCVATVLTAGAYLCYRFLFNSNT
Description: as §3, with “26.1 μMol” for “163 μg/mL”, “protein tyrosine phosphotase 1B (PTB1B)” for “phosphodiesterase (PDE-4B2)”, “59%.” for “46%.”

Sequence of glycogen synthase kinase 3beta (P49841 whole entry, species assumed): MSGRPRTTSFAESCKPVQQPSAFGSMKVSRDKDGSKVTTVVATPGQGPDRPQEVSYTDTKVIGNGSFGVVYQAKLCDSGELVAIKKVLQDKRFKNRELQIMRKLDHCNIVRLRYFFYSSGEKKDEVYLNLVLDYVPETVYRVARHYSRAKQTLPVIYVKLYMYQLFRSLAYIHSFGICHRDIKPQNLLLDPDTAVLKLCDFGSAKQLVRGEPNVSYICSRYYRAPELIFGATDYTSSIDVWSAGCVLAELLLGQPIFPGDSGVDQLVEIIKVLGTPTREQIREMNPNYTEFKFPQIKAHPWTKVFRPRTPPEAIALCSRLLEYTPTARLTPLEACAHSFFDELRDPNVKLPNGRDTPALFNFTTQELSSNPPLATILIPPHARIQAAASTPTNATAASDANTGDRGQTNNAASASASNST
Sequence of phosphodiesterase (PDE-4B2) (Q07343 1-564 isoform Q07343-2, species assumed): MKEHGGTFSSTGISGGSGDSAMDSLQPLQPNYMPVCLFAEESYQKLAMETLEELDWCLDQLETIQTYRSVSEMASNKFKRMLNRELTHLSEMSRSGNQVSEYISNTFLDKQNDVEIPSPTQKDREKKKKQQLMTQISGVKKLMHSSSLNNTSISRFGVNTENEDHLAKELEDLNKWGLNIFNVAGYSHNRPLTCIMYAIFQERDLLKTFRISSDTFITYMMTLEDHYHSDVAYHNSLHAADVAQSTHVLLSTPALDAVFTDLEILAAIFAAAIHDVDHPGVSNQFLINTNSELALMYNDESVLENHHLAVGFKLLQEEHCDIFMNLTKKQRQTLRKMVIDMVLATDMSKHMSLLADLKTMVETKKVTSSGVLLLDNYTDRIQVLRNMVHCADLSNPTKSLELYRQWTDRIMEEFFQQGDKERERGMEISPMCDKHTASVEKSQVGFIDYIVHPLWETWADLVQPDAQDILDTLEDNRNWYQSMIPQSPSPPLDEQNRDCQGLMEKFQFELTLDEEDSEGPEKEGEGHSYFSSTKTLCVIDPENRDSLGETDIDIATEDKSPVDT

| Compound | IC50 [1] | IC50 [2] | IC50 [3] | IC50 [4] | IC50 [5] | IC50 [6] | insecticidal effect (dead larvae) (larvae of the wax moth) | inhibition of glycogen synthase kinase 3beta ([7]; 15.6 μMol) | IC50 (acetylcholine esterase) | inhibition at 163 µg/mL [8] | inhibition of protein tyrosine phosphatase 1B [9] | inhibition of glycogen synthase kinase 3beta ([7]; 16.3 μMol) |
| --- | --- | --- | --- | --- | --- | --- | --- | --- | --- | --- | --- | --- |
| CCCCC(C)CC(=O)N[C@@H]1C(=O)N[C@@H](C)C(=O)NC(CC(C)C)C(=O)NC(CC(C)C)C(=O)NC(CC(C)C)C(=O)NC(CC(C)C)C(=O)N[C@@H](C)C(=O)O[C@@H]1C (single isomer, unassigned) [Xenobovide C] | 3 µM | 7.8 µM | 8.5 µM | 9.4 µM | 10.3 µM | 7.6 µM | death of all larvae | – | – | – | – | – |
| CCCCC(C)CC(=O)N[C@@H]1C(=O)N[C@@H](C)C(=O)NC(CC(C)C)C(=O)NC(CC(C)C)C(=O)NC(CC(C)C)C(=O)NC(CC(C)C)C(=O)N[C@@H](C)C(=O)O[C@@H]1C (single isomer, unassigned) [Xenobovide B] | 2.5 µM | 9.7 µM | 3.2 µM | 5.3 µM | 2.9 µM | 14.5 µM | death of all larvae | 43% | – | – | – | – |
| CCCCC(C)CC(=O)N[C@@H]1C(=O)N[C@@H](C)C(=O)NC(CC(C)C)C(=O)NC(CC(C)C)C(=O)NC(CC(C)C)C(=O)NC(CC(C)C)C(=O)N[C@@H](C)C(=O)O[C@@H]1C (single isomer, unassigned) [Xenobovide A] | 1.6 µM | 8.5 µM | 2.1 µM | 2.7 µM | 3.5 µM | 12 µM | death of all larvae | – | 53.6 µM | 46% | 59% | 21% |
